Measured values: the supplement of paper PMC12463676, “Small-molecule dissolution of stress granules by redox modulation benefits ALS models” (Nature Chemical Biology, 2025)

Experiments:
[1] = compound: O=[As]([O-])(O)O.[K+] [potassium arsenate]; experiment: thermal stability z-score vs DMSO; higher = more thermally stabilized by treatment; details: HeLa; arsenate concentration 1 mM
Method: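 Cellular thermal proteome profiling in HeLa cells treated with 1 mM arsenate for 1 h (DMSO pretreatment), heated to ten temperatures (37-66.3 °C). Soluble protein was quantified by TMT mass spectrometry relative to DMSO controls; the thermal stability score was transformed to a z-score; mean of n = 3 experiments.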

[2] = compound: NC(=O)CCCCC1CCSS1 [lipoamide]; experiment: as above; details: HeLa, lipoamide concentration 100 µM
Method: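 Cellular thermal proteome profiling in HeLa cells. Cells were treated with 100 µM lipoamide for 1 h, with or without 1 mM arsenate for a further 1 h, then heated to ten temperatures (37-66.3 °C), and soluble protein was quantified by TMT mass spectrometry relative to 0.1% DMSO controls. The thermal stability score (sum of log2 fold changes minus the abundance score) was transformed to a z-score; mean of n = 3 experiments.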

[3] = arsenate co-treatment: 1 mM arsenate 1 h
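Note: each temperature applied for 3 min, abundance score taken as mean log2 fold change at the two lowest temperatures, z-score obtained by mean subtraction and division by SD.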

Chain of UniProt O14980 (O14980 whole entry): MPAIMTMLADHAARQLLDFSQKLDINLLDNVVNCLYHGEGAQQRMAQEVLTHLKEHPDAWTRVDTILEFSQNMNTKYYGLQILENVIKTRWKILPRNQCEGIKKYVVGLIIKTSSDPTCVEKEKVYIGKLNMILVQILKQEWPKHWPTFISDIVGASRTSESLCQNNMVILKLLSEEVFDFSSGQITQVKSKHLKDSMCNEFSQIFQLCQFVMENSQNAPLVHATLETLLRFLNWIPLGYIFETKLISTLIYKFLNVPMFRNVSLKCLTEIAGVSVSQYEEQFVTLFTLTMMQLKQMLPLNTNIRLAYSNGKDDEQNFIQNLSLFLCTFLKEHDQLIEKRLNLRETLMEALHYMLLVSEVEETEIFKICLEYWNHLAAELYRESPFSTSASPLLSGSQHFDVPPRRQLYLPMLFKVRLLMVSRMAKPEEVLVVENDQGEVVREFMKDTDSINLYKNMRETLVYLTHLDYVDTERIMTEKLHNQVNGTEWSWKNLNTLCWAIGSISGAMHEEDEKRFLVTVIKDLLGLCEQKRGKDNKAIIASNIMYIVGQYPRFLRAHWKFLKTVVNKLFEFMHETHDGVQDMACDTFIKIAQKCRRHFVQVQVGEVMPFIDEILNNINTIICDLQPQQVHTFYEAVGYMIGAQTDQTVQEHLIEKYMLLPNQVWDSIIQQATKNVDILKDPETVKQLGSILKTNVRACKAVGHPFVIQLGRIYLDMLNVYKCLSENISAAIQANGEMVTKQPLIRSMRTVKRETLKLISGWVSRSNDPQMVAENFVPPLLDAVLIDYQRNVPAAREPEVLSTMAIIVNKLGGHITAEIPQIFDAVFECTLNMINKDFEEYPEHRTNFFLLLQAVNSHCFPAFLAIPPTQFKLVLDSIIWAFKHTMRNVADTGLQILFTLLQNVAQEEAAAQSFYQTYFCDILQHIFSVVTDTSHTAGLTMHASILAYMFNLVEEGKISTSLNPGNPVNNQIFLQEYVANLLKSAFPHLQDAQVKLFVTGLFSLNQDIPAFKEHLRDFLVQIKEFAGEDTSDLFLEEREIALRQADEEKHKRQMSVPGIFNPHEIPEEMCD
Chain of UniProt Q9UIA9 (Q9UIA9 whole entry): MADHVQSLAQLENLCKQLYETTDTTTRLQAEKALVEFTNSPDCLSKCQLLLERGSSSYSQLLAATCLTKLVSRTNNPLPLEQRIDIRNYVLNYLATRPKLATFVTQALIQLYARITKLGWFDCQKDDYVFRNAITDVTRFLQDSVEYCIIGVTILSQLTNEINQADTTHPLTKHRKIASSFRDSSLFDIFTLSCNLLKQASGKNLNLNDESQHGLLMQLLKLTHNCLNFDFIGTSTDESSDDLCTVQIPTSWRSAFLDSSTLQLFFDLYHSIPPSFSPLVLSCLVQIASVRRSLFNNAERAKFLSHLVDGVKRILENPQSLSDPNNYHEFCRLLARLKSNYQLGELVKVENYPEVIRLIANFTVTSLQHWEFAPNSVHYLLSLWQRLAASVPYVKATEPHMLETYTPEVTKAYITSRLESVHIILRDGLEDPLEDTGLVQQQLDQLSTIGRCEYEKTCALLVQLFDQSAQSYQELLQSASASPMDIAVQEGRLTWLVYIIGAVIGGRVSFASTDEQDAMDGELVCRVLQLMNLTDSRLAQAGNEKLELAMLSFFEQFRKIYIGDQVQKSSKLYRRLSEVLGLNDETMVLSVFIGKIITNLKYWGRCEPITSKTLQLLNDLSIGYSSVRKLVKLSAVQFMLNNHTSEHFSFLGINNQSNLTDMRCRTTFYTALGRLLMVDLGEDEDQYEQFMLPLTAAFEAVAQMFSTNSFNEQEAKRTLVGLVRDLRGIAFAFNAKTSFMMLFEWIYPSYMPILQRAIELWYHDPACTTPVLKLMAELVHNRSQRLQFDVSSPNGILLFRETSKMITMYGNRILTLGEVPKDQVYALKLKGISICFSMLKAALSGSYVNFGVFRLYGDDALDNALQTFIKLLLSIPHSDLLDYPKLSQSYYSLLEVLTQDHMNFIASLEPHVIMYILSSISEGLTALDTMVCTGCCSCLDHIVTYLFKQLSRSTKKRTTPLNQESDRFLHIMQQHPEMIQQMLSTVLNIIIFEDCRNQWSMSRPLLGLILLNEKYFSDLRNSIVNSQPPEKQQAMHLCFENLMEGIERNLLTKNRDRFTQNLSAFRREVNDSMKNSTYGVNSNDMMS
Chain of UniProt Q13426 (Q13426 whole entry): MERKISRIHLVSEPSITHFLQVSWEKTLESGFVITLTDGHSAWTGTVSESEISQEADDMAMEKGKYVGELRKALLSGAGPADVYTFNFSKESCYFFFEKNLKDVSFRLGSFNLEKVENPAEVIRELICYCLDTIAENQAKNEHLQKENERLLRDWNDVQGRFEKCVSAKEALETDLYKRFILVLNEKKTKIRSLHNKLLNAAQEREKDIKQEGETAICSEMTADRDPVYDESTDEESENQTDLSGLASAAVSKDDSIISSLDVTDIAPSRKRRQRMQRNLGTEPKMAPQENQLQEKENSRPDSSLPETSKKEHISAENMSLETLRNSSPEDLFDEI
Chain of UniProt Q9GZM5 (Q9GZM5 whole entry): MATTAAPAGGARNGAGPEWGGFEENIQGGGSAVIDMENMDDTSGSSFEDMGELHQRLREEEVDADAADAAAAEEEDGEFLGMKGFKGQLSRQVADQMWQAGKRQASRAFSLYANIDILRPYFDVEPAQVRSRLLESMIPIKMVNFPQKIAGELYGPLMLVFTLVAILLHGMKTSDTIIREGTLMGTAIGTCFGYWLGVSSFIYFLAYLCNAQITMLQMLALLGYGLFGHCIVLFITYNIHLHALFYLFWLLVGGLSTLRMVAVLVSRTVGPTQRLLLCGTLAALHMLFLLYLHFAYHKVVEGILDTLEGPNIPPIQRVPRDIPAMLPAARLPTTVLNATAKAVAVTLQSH
Chain of UniProt P12956 (P12956 whole entry): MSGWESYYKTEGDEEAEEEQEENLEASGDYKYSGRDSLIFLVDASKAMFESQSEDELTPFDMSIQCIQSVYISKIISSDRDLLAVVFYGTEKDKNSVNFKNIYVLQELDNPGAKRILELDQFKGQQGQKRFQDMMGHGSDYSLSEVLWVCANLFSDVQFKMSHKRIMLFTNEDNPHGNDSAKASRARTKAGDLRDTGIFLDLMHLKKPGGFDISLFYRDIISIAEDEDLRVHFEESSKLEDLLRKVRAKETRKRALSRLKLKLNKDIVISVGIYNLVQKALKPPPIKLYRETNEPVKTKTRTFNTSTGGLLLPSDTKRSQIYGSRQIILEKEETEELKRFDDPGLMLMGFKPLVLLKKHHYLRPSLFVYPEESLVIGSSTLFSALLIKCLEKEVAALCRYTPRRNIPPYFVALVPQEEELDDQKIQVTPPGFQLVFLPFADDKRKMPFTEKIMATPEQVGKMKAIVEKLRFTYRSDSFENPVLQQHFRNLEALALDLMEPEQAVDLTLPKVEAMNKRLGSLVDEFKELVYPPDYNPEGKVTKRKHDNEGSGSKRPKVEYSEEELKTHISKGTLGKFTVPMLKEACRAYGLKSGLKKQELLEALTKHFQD
Chain of UniProt Q15007 (Q15007 whole entry): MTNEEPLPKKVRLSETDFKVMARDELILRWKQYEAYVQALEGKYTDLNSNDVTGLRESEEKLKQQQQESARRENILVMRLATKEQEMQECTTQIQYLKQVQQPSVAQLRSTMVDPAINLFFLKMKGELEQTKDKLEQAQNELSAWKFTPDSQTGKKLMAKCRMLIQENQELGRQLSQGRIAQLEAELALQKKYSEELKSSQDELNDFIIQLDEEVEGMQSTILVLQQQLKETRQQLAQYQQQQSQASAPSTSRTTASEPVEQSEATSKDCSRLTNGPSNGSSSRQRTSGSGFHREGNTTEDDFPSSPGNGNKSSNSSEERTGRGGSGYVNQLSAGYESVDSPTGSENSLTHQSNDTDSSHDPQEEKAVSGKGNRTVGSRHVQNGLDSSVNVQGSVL
Chain of UniProt P13010 (P13010 whole entry): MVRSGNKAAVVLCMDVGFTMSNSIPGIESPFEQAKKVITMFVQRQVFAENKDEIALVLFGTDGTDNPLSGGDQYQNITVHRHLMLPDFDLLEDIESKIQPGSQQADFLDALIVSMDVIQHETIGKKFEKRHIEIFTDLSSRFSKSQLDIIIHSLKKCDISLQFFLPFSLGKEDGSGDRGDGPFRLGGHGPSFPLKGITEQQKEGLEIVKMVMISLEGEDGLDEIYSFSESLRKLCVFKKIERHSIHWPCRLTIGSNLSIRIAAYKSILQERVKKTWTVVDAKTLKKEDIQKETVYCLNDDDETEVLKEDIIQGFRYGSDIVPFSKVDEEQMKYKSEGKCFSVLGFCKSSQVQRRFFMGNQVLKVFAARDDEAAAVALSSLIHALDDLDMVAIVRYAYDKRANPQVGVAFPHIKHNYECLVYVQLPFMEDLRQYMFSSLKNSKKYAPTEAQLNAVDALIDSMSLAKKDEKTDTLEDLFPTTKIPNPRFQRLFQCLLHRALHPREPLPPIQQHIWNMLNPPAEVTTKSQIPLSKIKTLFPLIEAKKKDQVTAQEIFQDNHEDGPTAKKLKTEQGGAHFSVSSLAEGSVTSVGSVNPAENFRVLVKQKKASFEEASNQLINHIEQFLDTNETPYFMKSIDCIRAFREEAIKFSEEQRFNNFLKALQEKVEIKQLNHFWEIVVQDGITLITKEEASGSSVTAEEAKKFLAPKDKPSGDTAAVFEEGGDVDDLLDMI
Chain of UniProt Q86U90 (Q86U90 whole entry): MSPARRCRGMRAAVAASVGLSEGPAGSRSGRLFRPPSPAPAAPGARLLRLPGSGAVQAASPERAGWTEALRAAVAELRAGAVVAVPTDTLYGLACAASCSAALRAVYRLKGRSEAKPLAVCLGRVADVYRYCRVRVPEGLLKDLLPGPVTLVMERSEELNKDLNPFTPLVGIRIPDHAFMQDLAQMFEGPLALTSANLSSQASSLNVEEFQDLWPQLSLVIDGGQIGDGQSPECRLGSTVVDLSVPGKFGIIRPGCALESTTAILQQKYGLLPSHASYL
Chain of UniProt P62699 (P62699 whole entry): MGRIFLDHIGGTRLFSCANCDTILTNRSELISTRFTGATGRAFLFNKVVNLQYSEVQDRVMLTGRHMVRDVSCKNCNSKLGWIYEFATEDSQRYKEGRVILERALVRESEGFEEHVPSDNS

Target	thermal stability z-score [1]	thermal stability z-score [2, 3]	thermal stability z-score ([2]; arsenate co-treatment: none)
WIPI1 (UniProt Q5MNZ9)	0.18	-0.175	-0.814
WIPI2 (UniProt Q9Y4P8)	-0.0998	0.0343	0.463
WLS (UniProt Q5T9L3)	0.0899	-2.04	-1.12
WNK1 (UniProt Q9H4A3)	0.386	0.149	-0.0327
WNT5A (UniProt P41221)	0.214	-0.888	-0.379
WRAP53 (UniProt Q9BUR4)	-0.337	-0.113	-0.15
WRB (UniProt O00258)	-0.55	-0.618	0.0706
WRNIP1 (UniProt Q96S55)	0.0587	-0.272	-0.113
WTAP (UniProt Q15007)	-0.059	0.0767	0.0181
WWC1 (UniProt Q8IX03)	-0.0726	-0.0147	-0.0692
WWC2 (UniProt Q6AWC2)	-0.129	-0.0127	-0.0518
WWP2 (UniProt O00308)	0.0179	-0.0648	-0.0387
WWTR1 (UniProt Q9GZV5)	0.377	-0.0845	-0.0566
XAB2 (UniProt Q9HCS7)	0.256	-0.104	-0.113
XIAP (UniProt P98170)	-0.747	-0.12	-0.0464
XPA (UniProt P23025)	-0.0786	0.0325	0.0998
XPNPEP1 (UniProt Q9NQW7)	-0.738	1.5	0.794
XPNPEP3 (UniProt Q9NQH7)	-0.646	-0.37	0.018
XPO1 (UniProt O14980)	1.4	0.211	0.4
XPO4 (UniProt Q9C0E2)	-0.27	-0.237	-0.0735
XPO5 (UniProt Q9HAV4)	-0.103	-0.576	-0.108
XPO6 (UniProt Q96QU8)	-0.339	0.0641	0.00854
XPO7 (UniProt Q9UIA9)	0.621	-0.0212	-0.0682
XPOT (UniProt O43592)	-0.212	-0.645	-0.112
XPR1 (UniProt Q9UBH6)	0.209	-0.458	-0.47
XRCC1 (UniProt P18887)	-0.417	-0.0745	0.0492
XRCC4 (UniProt Q13426)	1.24	2.01	1.89
XRCC5 (UniProt P13010)	-0.403	-0.555	0.584

Target	thermal stability z-score [1]	thermal stability z-score [2, 3]	thermal stability z-score ([2]; arsenate co-treatment: none)
XRCC6 (UniProt P12956)	-0.634	-0.75	0.0871
XRN1 (UniProt Q8IZH2)	-0.357	-0.0709	-0.0695
XRN2 (UniProt Q9H0D6)	-0.818	0.575	0.495
XXYLT1 (UniProt Q8NBI6)	0.948	-0.751	-2.13
XYLB (UniProt O75191)	0.149	-0.0179	-0.17
YAP1 (UniProt P46937)	0.0991	0.509	0.727
YARS2 (UniProt Q9Y2Z4)	0.423	-0.741	-0.156
YARS (UniProt P54577)	2.64	0.161	0.213
YBEY (UniProt P58557)	0.131	-0.077	0.169
YBX1 (UniProt P67809)	-0.894	-0.0518	-0.23
YBX3 (UniProt P16989)	-0.672	0.153	-0.0445
YDJC (UniProt A8MPS7)	-1.04	-0.851	-1.66
YEATS4 (UniProt O95619)	-0.33	0.802	0.865
YES1 (UniProt P07947)	-2.98	-0.641	-0.393
YIF1B (UniProt Q5BJH7)	0.898	0.452	-0.197
YIPF3 (UniProt Q9GZM5)	-0.0851	-0.157	0.0301
YIPF4 (UniProt Q9BSR8)	-0.689	0.0431	-0.44
YIPF5 (UniProt Q969M3)	-0.18	-0.255	-0.344
YKT6 (UniProt O15498)	-0.597	-0.198	0.453
YME1L1 (UniProt Q96TA2)	-0.298	-0.813	-0.425
YOD1 (UniProt Q5VVQ6)	0.0186	-0.00898	-0.121
YPEL5 (UniProt P62699)	-0.117	-0.116	-0.259
YRDC (UniProt Q86U90)	0.341	0.45	0.0491
YTHDC2 (UniProt Q9H6S0)	-0.0852	-0.0971	-0.734
YTHDF1 (UniProt Q9BYJ9)	-0.193	0.00152	-0.0393
YTHDF2 (UniProt Q9Y5A9)	0.0979	-0.0393	-0.108
YTHDF3 (UniProt Q7Z739)	0.174	-0.486	0.111
